Consider 15 molecules from patent publication US8765736B2, “Benzenesulfonamide compounds and the use thereof” (Purdue Pharma L.P., priority 2007, dated 2014).

Experiment [1] concerns the target T1, N-type calcium channel (NTCC) (Homo sapiens, UniProt Q00975).
T1 construct: endogenous in cells; host or cells: IMR32 cells (ATCC), differentiated with dibutyryl cAMP and bromodeoxyuridine
Kind of experiment: FLIPR calcium mobilization assay for N-type calcium channel. Particulars: calcium mobilization in vitro assay; differentiated IMR32 cells, 5 μM nitrendipine, 90 mM KCl. Type of experiment: cell-based. How it is done: Cell maintenance and differentiation. Unless noted otherwise, cell culture reagents were purchased from Mediatech of Herndon, Md. IMR32 cells (American Type Culture Collection, ATCC, Manassas, Va.) were routinely cultured in growth medium consisting of minimum essential medium containing 10% fetal bovine serum (FBS, Hyclone, Logan, Utah), 100 U/mL penicillin, 100 μg/mL streptomycin, 2 mM L-glutamine, 1 mM sodium pyruvate, and 1×MEM non-essential amino acids. 80-90% confluent flasks of cells were differentiated using the following differentiation medium: Growth medium plus 1 mM dibutyryl cyclic AMP (Sigma, St. Louis, Mo.), and 2.5 μM bromodeoxyuridine (Sigma). Cells were differentiated for 8 days by replacing differentiation medium every 2-3 days.
FLIPR Calcium Mobilization Assay for N-type Calcium Channel. One day prior to performing this assay, differentiated IMR32 cells were treated with 1× CellStripper, and seeded on poly-D-lysine-coated 96-well clear-bottom black plates (Becton Dickinson, Franklin Lakes, N.J.) at 200,000 cells/well. On the day of the assay, the cell plates were washed with IMR32 buffer (127 mM NaCl, 1 mM KCl, 2 mM MgCl2, 700 μM NaH2PO4, 5 mM CaCl2, 5 mM NaHCO3, 8 mM HEPES, 10 mM glucose, pH 7.4), then pre-stimulated with KCl and loaded as follows: 0.05 mL of IMR32 buffer, 0.05 mL of each compound tested diluted in IMR32 buffer containing 20 μM nitrendipine (Sigma), and 0.1 mL KCl dissolved in IMR32 buffer, plus Fluo-4 were added (3 μM final concentration, Molecular Probes, Eugene, Oreg.). Final test compound concentrations ranged from about 846 pM to about 17 μM, final nitrendipine concentration was 5 μM, and final KCl concentration was 90 mM. After 1 hour, the cells were washed twice with 0.05 mL of each compound tested in nitrendipine-containing IMR32 buffer (no KCl or Fluo-4), and then replaced with 0.1 mL of each compound tested in nitrendipine-containing IMR32 buffer. Plates were then transferred to a Fluorimetric Imaging Plate Reader (FLIPR^96, Molecular Devices, Inc., Sunnyvale, Calif.) for assay. The FLIPR measured basal Fluo-4 fluorescence for 315 seconds (i.e., 5 minutes and 15 seconds), then added 0.1 mL KCl agonist dissolved in IMR32 buffer and measured fluorescence for another 45 seconds. Final test compound concentrations on the cells after FLIPR read ranged from about 846 pM to about 17 μM, final nitrendipine concentration was 5 μM, and final KCl concentration was 90 mM. Data were collected over the entire time course and analyzed using Excel, Graph Pad Prism (version 3.02, Graph Pad, San Diego, Calif.), or an in-house non-linear regression analysis software.

The target in experiment [2] is T2, recombinant rat L-type calcium channel (LTCC) subunits (α1c, α2δ, and β1) (Rattus norvegicus, UniProt P22002).
T2 construct: expressed in transfected cells; α1c in pcDNA6.2DEST, β1 in pcDNA3.2DEST, α2δ in pcDNA3.1-Zeo
Kind of experiment: FLIPR calcium mobilization assay for L-type calcium channel. It is filed as cell-based. Conditions: calcium mobilization in vitro assay; HEK293 cells stably expressing rat LTCC subunits, 90 mM KCl. The method, then: Recombinant human embryonal kidney cells (HEK293, ATCC) stably transfected with either N-type calcium channel (NTCC) subunits (α1b (SEQ ID NOs: 13 to 15), α2δ (SEQ ID Nos: 16, 17), and β3 (SEQ ID NOs:18 to 20)) or L-type calcium channel (LTCC) subunits (α1c (SEQ ID NOs:21, 22), α2δ, and β1 (SEQ ID NOs:23 to 25)) were routinely cultured in growth medium consisting of Dulbecco's Modified Eagles Medium containing 10% FBS, 100 U/mL penicillin, 100 μg/mL streptomycin, 4 mM L-glutamine, 500 μg/mL geneticin (G418), 20 μg/mL Blasticidin S (InVivogen, San Diego, Calif.) and 500 μg/mL zeocin (InVivogen).
FLIPR Calcium Mobilization Assay for L-type Calcium Channel. One day prior to performing this assay, HEK293 cells stably expressing recombinant rat L-type calcium channel (LTCC) subunits (α1c, α2δ, and β1) were trypsinized, then seeded on poly-D-lysine-coated 96-well clear-bottom black plates (Becton Dickinson, Franklin Lakes, N.J.) at 75,000 cells/well. On the day of the assay, the plates were washed with LTCC wash buffer (127 mM NaCl, 2 mM MgCl2, 700 μM NaH2PO4, 5 mM CaCl2, 5 mM NaHCO3, 8 mM HEPES, 10 mM glucose, pH 7.4), then loaded with 0.1 mL of LTCC wash buffer containing Fluo-4 (3 μM final concentration, Molecular Probes, Eugene, Oreg.). After 1 hour, the cells were washed with 0.1 mL LTCC wash buffer and resuspended in 0.05 mL LTCC assay buffer (same composition as LTCC wash buffer). Plates were then transferred to a FLIPR^96 for assay. The FLIPR measured basal Fluo-4 fluorescence for 15 seconds, then added 0.05 mL of each compound tested diluted in LTCC assay buffer at final concentrations ranging from about 846 pM to about […]. Fluo-4 fluorescence was then measured for 5 minutes. 0.1 mL KCl agonist dissolved in LTCC assay buffer was then added to the cells to produce a final concentration of 90 mM KCl, and fluorescence was measured for another 45 seconds. Data were collected over the entire time course and analyzed using Excel, Graph Pad Prism, or an in-house regression analysis software.
L-type Recombinant Cell Line Development. L-type calcium channel expressing HEK-293 cells were created in two stages. Stage 1 was created as follows. The rat α1c, and β1 cDNA expression constructs (2.5 μg each) were co-transfected into human embryonic kidney (HEK-293) cells by Lipofectamine Plus reagent (Invitrogen), as per manufacturer's instructions. 24 hours later, cells were split in limiting dilution into multiple 96-well plates in selection media containing 20 μg/mL blasticidin and 500 μg/mL geneticin, and incubated for 3 weeks at 37° C., 5% CO2, 95% humidity. Plates containing ≦1 clone per well were cultured until wells positive for single clones were confluent. Individual clones were then arrayed into columns of a destination 96-well plate, and partly split into 6-well plates for culture maintenance. Array plates were washed once with LTCC wash (or assay) buffer and cells loaded for 1 hour with 0.1 mL of LTCC buffer containing Fluo-4 (3 μM final concentration, Molecular Probes). Then they were washed twice with 0.1 mL of LTCC buffer, and replaced with 0.1 mL LTCC buffer. Plates were then transferred to a FLIPR^96 for assay. The FLIPR measured basal Fluo-4 fluorescence for 315 seconds, then added 0.1 mL KCl agonist dissolved in LTCC buffer and measured fluorescence for another 45 seconds. Final KCl concentration was 90 mM. Data were collected over the entire time course and analyzed using Excel, Graph Pad Prism, or Activity Base software. The clone with the greatest signal-to-noise ratio, best stability of response with passage number, and best adhesion to PDL precoated plates (Becton Dickinson) was expanded, characterized and used for stage 2 cell line development.
Stage 2 of L-type cell line development was carried out as follows. The rat α2δ cDNA expression construct (5 μg each) was transfected into the stage 1 L-type clonal cell line by Lipofectamine Plus reagent (Invitrogen), as per manufacturer's instructions. […]

T1 sequence (Q00975 whole entry): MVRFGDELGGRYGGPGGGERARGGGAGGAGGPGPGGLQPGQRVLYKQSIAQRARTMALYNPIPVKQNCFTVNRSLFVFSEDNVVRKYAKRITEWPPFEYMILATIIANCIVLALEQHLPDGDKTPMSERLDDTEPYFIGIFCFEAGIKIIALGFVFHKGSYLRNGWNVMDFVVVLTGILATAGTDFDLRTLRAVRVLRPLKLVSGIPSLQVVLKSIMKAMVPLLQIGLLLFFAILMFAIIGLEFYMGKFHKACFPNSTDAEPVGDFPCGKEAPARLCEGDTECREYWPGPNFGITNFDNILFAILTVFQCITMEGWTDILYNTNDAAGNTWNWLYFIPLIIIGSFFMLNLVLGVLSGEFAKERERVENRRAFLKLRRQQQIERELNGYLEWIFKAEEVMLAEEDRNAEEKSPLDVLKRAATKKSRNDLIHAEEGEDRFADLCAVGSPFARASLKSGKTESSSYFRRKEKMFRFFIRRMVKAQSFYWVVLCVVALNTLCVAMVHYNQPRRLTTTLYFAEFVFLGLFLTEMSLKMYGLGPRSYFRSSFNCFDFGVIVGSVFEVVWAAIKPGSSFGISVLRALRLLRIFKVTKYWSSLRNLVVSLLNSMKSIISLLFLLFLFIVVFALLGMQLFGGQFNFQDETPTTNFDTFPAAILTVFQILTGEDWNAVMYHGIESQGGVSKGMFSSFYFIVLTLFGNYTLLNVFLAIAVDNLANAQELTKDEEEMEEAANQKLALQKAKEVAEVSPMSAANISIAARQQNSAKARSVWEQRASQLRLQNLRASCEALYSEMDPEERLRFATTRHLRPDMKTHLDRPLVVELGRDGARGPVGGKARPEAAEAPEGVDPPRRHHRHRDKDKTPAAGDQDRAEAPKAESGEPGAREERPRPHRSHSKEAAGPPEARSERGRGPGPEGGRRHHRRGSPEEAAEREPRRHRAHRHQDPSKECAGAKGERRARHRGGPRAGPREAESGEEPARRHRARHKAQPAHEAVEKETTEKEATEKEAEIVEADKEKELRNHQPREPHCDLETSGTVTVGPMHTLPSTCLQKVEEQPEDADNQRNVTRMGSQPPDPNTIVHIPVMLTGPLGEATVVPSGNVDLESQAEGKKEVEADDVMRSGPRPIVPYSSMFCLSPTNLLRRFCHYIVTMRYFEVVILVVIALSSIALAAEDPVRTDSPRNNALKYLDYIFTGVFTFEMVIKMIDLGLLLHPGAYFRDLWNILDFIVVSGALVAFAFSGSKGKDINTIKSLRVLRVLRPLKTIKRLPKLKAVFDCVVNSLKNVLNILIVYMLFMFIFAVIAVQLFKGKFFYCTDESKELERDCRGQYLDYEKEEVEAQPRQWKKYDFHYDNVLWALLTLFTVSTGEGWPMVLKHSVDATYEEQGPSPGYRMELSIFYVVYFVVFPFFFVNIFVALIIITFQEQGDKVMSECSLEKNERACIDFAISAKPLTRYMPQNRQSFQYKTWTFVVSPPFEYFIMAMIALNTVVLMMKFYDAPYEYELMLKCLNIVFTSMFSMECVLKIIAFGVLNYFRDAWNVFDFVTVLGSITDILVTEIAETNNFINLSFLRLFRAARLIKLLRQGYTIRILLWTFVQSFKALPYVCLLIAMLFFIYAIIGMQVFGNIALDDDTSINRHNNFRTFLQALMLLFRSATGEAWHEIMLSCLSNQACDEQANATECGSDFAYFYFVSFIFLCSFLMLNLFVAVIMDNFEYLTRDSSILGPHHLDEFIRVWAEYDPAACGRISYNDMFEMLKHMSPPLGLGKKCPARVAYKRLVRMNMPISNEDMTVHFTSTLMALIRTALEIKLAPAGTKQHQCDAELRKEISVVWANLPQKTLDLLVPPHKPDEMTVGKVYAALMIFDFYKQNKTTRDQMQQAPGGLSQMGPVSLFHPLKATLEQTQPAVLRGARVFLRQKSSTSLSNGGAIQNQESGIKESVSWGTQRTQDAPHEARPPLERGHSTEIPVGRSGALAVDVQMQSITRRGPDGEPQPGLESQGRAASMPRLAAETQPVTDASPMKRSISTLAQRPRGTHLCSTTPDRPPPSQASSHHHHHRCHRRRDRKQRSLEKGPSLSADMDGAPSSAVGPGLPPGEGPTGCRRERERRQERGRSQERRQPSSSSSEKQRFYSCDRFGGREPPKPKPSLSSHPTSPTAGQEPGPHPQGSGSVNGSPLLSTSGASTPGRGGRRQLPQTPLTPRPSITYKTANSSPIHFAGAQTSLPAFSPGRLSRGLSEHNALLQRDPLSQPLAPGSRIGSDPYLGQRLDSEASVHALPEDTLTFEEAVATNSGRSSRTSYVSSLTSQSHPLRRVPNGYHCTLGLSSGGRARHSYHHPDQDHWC
T1 sequence (P54289 25-956 partner limits assumed): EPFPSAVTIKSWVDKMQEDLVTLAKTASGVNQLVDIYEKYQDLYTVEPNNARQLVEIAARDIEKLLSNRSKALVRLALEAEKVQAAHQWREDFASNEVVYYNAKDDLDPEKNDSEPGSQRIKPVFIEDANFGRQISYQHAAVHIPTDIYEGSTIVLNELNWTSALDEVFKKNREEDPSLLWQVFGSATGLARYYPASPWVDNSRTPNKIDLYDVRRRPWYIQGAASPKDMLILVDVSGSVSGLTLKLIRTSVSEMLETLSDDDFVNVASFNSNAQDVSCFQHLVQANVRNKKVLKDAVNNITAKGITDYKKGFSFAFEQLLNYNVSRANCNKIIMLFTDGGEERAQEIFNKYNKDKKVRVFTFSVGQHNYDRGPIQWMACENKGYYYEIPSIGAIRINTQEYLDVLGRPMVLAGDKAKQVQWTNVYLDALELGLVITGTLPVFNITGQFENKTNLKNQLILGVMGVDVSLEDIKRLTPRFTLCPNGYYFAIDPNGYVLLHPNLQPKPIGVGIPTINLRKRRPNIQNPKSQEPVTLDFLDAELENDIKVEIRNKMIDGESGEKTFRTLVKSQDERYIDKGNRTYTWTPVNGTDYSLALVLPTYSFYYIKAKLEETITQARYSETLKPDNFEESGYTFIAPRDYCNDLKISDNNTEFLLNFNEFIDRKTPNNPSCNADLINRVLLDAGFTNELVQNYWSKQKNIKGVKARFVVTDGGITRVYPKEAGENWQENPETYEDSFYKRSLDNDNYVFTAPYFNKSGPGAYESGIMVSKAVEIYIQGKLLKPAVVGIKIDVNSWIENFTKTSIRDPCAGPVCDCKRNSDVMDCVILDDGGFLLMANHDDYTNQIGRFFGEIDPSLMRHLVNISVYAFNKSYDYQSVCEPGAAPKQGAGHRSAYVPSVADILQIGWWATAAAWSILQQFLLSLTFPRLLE
T1 sequence (P54289 957-1103 partner limits assumed): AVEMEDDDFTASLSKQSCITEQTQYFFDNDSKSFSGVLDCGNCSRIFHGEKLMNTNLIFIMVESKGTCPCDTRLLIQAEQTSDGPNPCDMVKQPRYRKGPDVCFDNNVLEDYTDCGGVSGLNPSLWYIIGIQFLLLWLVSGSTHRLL
T1 sequence (P54284 whole entry partner): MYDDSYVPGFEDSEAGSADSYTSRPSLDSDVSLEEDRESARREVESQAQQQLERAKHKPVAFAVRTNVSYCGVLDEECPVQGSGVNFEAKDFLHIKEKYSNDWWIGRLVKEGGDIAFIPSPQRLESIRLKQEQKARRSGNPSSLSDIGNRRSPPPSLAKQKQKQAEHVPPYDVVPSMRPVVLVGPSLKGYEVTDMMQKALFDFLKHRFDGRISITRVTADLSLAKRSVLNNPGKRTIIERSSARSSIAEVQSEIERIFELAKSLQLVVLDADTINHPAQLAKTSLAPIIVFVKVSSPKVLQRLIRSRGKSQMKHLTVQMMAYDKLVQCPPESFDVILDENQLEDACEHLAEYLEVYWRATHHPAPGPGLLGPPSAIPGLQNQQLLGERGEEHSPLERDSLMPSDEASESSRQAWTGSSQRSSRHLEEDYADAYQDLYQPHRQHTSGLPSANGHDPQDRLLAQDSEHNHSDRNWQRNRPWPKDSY

Turning to `CC(C)N(C1CCN(CC(=O)NC2CCOC2)CC1)S(=O)(=O)c1cccc(C(F)(F)F)c1` (stereo not drawn) [Compound 31e, 2-{4-[Isopropyl-(3-trifluoromethyl-benzenesulfonyl)-amino]-piperidin-1-yl}-N-(tetrahydrofuran-3-yl)-acetamide], in experiment [1], the IC50 was 3200 nM.

In the case of `O=C(NCCN1CCC(N(C2CC2)S(=O)(=O)c2cccc(C(F)(F)F)c2)CC1)c1cc(C(F)(F)F)cc(C(F)(F)F)c1` [Compound 14b, N-(2-{4-[Cyclopropyl-(3-trifluoromethylbenzenesulfonyl)amino]piperidin-1-yl}ethyl)-3,5-bis(trifluoromethyl)phenylbenzamide], the IC50 in experiment [1] was 1130 nM.

On to `CCOC(=O)c1cccnc1N1CCC(N(C2CC2)S(=O)(=O)c2cccc(C(F)(F)F)c2)CC1` [Compound 10b, 4-[Cyclopropyl-(3-trifluoromethyl-benzenesulfonyl)amino]-3,4,5,6-tetrahydro-2H-[1,2′]-bipyridinyl-3′-carboxylic acid ethyl ester], for which the concentration for half-maximal inhibition (IC50) in experiment [1] turned out to be 1440 nM.

As for `CCOC(=O)C(C)(C)N1CCC(N(C(C)C)S(=O)(=O)c2cccc(C(F)(F)F)c2)CC1` [Compound 8b, 2-{4-[Isopropyl-(3-trifluoromethyl-benzenesulfonyl)amino]piperidin-1-yl}-2-methylpropionic acid ethyl ester], the results for the IC50 in experiment [2] and in experiment [1] were above 20000 nM and 620 nM, respectively.

On to `CC(C)(C(=O)Nc1ccc(F)cc1)N1CCC(N(C2CC2)S(=O)(=O)c2cccc(C(F)(F)F)c2)CC1` [Compound 21b, 2-{-4-[Cyclopropyl-(3-trifluoromethyl-benzenesulfonyl)-amino]-piperidin-1-yl}-N-(4-fluoro-phenyl)-isobutyramide], for which the IC50 in experiment [2] was above 20000 nM; in experiment [1], 600 nM.

Take `COC(=O)c1ccccc1N1CCC(N(C2CC2)S(=O)(=O)c2cccc(C(F)(F)F)c2)CC1` [Compound 10a, 2-{4-[Cyclopropyl-(3-trifluoromethyl-benzenesulfonyl)amino]piperidin-1-yl}benzoic acid methyl ester]: the IC50 in experiment [2] is above 20000 nM; in experiment [1] it was 900 nM.

Turning to `O=C(NCCN1CCC(N(C2CC2)S(=O)(=O)c2cccc(C(F)(F)F)c2)CC1)c1ccc(F)cc1` [Compound 14a, N-(2-{-4-[Cyclopropyl-(3-trifluoromethylbenzenesulfonyl)amino]piperidin-1-yl}ethyl)-4-fluorobenzamide], the IC50 stood at 6740 nM in experiment [2] and 380 nM in experiment [1].

Turning to `O=S(=O)(c1cccc(C(F)(F)F)c1)N(C1CC1)C1CCN(c2cc(C(F)(F)F)cc(C(F)(F)F)c2)CC1` [Compound 10e, N-[1-(3,5-Bis-(trifluoromethyl)phenyl)piperidin-1-yl]-N-cyclopropyl-3-trifluoromethylbenzenesulfonamide], the 50% inhibitory concentration (IC50) in experiment [1] stood at 6270 nM.

Turning to `CC(C)(C(=O)Nc1ccc(F)cc1Cl)N1CCC(N(C2CC2)S(=O)(=O)c2cccc(C(F)(F)F)c2)CC1` [Compound 21a, N-(2-Chloro-4-fluorophenyl)-2-{-4-[cyclopropyl-(3-trifluoromethyl-benzenesulfonyl)-amino]-piperidin-1-yl}-isobutyramide], the IC50 in experiment [1] came out at 1600 nM.

For the molecule `CC(C)N(C1CCN(C2CCN(c3ccccc3)C2=O)CC1)S(=O)(=O)c1cccc(C(F)(F)F)c1` (stereo not drawn) [Compound 27a, N-Isopropyl-N-[1-(2-oxo-1-phenyl-pyrrolidin-3-yl)-piperidin-4-yl]-3-trifluoromethyl-benzenesulfonamide], the concentration for half-maximal inhibition (IC50) in experiment [2] is above 20000 nM; in experiment [1] it was 550 nM.

As for `CC(C)N(C1CCN(CC(=O)NC2CCCCCC2)CC1)S(=O)(=O)c1cccc(C(F)(F)F)c1` [Compound 31c, N-Cycloheptyl-2-{4-[isopropyl-(3-trifluoromethyl-benzenesulfonyl)-amino]-piperidin-1-yl}-acetamide], the figures for the IC50 in experiment [2] and in experiment [1] were 7850 nM and 260 nM, respectively.

As to `CCOC(=O)c1ccc(N2CCC(N(C3CC3)S(=O)(=O)c3cccc(C(F)(F)F)c3)CC2)cc1` [Compound 10d, 4-{-4-[Cyclopropyl-(3-trifluoromethyl-benzenesulfonyl)amino]piperidin-1-yl}benzoic acid ethyl ester], the IC50 in experiment [1] is 1310 nM.

As to `CCOC(=O)C(C)N1CCC(N(C(C)C)S(=O)(=O)c2cccc(C(F)(F)F)c2)CC1` (stereo not drawn) [Compound 8a, 2-[4-[Isopropyl-(3-trifluoromethyl-benzenesulfonyl)amino]piperidin-1-yl}propionic acid ethyl ester], the IC50 in experiment [1] is 1010 nM.

As to `CCOC(=O)c1cc(F)cc(N2CCC(N(C3CC3)S(=O)(=O)c3cccc(C(F)(F)F)c3)CC2)c1` [Compound 10c, 3-{-4-[Cyclopropyl-(3-trifluoromethyl-benzenesulfonyl)amino]piperidin-1-yl}-5-fluorobenzoic acid ethyl ester], the IC50 in experiment [1] worked out at 1070 nM.

`CC(C)N(C1CCN(CC(=O)N2CCCC2)CC1)S(=O)(=O)c1cccc(C(F)(F)F)c1` [Compound 31b, N-Isopropyl-N-[1-(2-oxo-2-pyrrolidin-1-yl-ethyl)-piperidin-4-yl]-3-trifluoromethyl-benzenesulfonamide]: in experiment [1], the IC50 stood at 1610 nM.
